Measured values reported in PubChem BioAssay (NCI).
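Tested at 5 concentrations; 48 h exposure; 96-well plates; endpoints linearly interpolated, else capped at highest concentration. TGI marks complete inhibition of growth.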

Key:
Assay in all cases: growth of human tumour cells (NCI), 48 h
[1] = tested on: 786-0 renal
[2] = tested on: OVCAR-4 ovarian
[3] = tested on: SR leukemia
[4] = tested on: MCF7 breast
[5] = tested on: NCI-H522 lung
[6] = tested on: U251 CNS
[7] = tested on: IGROV1 ovarian
[8] = tested on: MDA-MB-231 breast
[9] = tested on: ACHN renal
[10] = tested on: SN12C renal
[11] = tested on: T-47D breast
[12] = tested on: MALME-3M melanoma
[13] = tested on: UACC-62 melanoma
[14] = tested on: HL-60(TB) leukemia
[15] = tested on: HOP-92 NSCLC

Row | Structure (SMILES) | TGI [1] [µM] | TGI [2] [µM] | TGI [3] [µM] | TGI [4] [µM] | TGI [5] [µM] | TGI [6] [µM] | TGI [7] [µM] | TGI [8] [µM] | TGI [9] [µM] | TGI [10] [µM] | TGI [11] [µM] | TGI [12] [µM] | TGI [13] [µM] | TGI [14] [µM] | TGI [15] [µM]
1 | CC(=O)Nc1ccccc1S(=O)(=O)c1c(-c2c(C)c(Cl)c(C)c(Cl)c2C)noc1C | 40.6 | 35.6 | 43.2 | > 100 | > 100 | 95.5 | > 100 | 88 | > 100 | > 100 | > 100 | > 100 | > 100 |  | 
2 | COc1ccc(/C=N/Nc2nc3ccccc3c(=O)n2-c2ccccc2)cc1 | > 100 | > 100 | > 100 | 40.5 | > 100 | > 100 | > 100 | > 100 | > 100 | > 100 | > 100 | > 100 | > 100 | > 100 | 
3 | c1ncc(C23C4C5C6C4C2C6C53)[nH]1 (configuration not stated) | > 100 | > 100 | > 100 | > 100 |  | > 100 | > 100 | > 100 | > 100 | > 100 | > 100 | > 100 | > 100 | > 100 | > 100
4 | COc1ccc([N+](=O)[O-])cc1[I+]c1cc([N+](=O)[O-])ccc1OC | > 100 |  | 26.7 | > 100 | > 100 | 34.2 | > 100 | > 100 | > 100 | > 100 | > 100 | 17.1 | 94.8 | 97.6 | 
5 | CC(=O)NC1C(OCc2ccccc2)OC(CO)C(O)C1OC(C)C(=O)NC(C(=O)NC(CCC(=O)Nc1ccc2c(c1)CN1C(=O)c3ccccc3C1=N2)C(N)=O)C(C)C (configuration not stated) | > 100 | > 100 | > 100 | > 100 |  | > 100 | > 100 | > 100 | > 100 | > 100 | > 100 | > 100 | > 100 | > 100 | > 100
6 | CN(N=O)C(N)=NC(=O)c1ccccc1 | > 100 | > 100 | > 100 | > 100 | > 100 | > 100 | > 100 | > 100 | > 100 |  | > 100 | > 100 | > 100 |  | > 100
7 | Cc1oc2nc(N(C)C)n3c(C)nnc3c2c1C | > 100 | > 100 | > 100 | > 100 | > 100 | > 100 | > 100 | > 100 | > 100 | > 100 | > 100 |  | > 100 |  | > 100
8 | COc1ccc(-n2c(-c3ccccc3)cc(-c3cccs3)c2-c2cccs2)cc1 | > 100 | > 100 | > 100 | > 100 | > 100 | > 100 | > 100 | > 100 | > 100 | > 100 | > 100 |  | > 100 |  | > 100
9 | c1ccc(NC2(c3nnnn3C3CCCCC3)CCNCC2)cc1 | 28.6 | > 100 | 36.1 | 35.1 |  | 31.5 | > 100 | > 100 | 52.6 | 90.1 | 52.1 | 32.4 | 38.5 | 31.5 | 32.3
10 | OCC1OC(NC(=S)NCSCCC(F)(F)C(F)(F)C(F)(F)C(F)(F)C(F)(F)C(F)(F)F)C(O)C(O)C1O (configuration not stated) | > 100 | > 100 | > 100 | > 100 |  | 46.6 | > 100 | > 100 | > 100 | > 100 | > 100 | > 100 | > 100 | > 100 | 66.4
11 | O=C1Nc2ccccc2/C1=C\c1c(Cl)[nH]c2ccccc12 | 3.66 |  | 0.918 | 10.6 | 3.54 | 9.15 | 1.35 | 14.3 | 13.1 | 17.5 | > 100 | 6.39 | 9.75 | 0.728 | 3.6
12 | COC(=O)C1CCCCCCCCCCC12SCCCS2 (configuration not stated) | 28.5 | 38.7 | 34.9 | > 100 | 43.5 | 32.1 | 39.1 | 45.2 | 40.2 | 31.8 | > 100 | 37.6 | 59.4 |  | 39.9
13 | CC(=O)/C(=C\n1c(=S)[nH]c2ccc([N+](=O)[O-])cc21)C(=O)Nc1ccccc1C | > 100 | > 100 | > 100 | > 100 | > 100 | > 100 | > 100 | > 100 | > 100 | > 100 | > 100 | > 100 | > 100 | > 100 | 
14 | O=[N+]([O-])c1ccc2nc(/C=C(\O)c3ccccc3)c(/C=C(\O)c3ccc(Cl)cc3)nc2c1 | > 100 | > 100 | > 100 | > 100 | 79.7 | > 100 | > 100 | > 100 | > 100 | > 100 | > 100 | > 100 | > 100 |  | 
15 | COC(=O)C(NC(=O)C12CCC(C)(C(=O)O1)C2(C)C)c1cc(C(C)(C)C)c(O)c(C(C)(C)C)c1 (configuration not stated) | > 100 | > 100 | > 100 | > 100 | > 100 | > 100 | > 100 | > 100 | > 100 |  | > 100 | > 100 | > 100 | 32.1 | > 100
16 | COc1cc(/C=C2\N=C(c3ccccc3)N(/N=C/c3cc4cc(C)ccc4nc3Cl)C2=O)ccc1O | > 100 | > 100 | 47.1 | 63.1 |  | > 100 | > 100 | > 100 | > 100 | 77.1 | > 100 |  | > 100 | 76.6 | > 100
